We go through eleven compounds from US20250230193A1, “CYCLIC COMPOUND HAVING SELECTIVE KRAS INHIBITORY EFFECT ON HRAS AND NRAS” (CHUGAI SEIYAKU KABUSHIKI KAISHA, priority 2022, published 2025).

The target of assay [1] is GDP-bound NRAS wild-type protein (Homo sapiens, UniProt P01111). Nature of the assay: Binding to NRAS by surface plasmon resonance (SPR), Single Cycle Kinetics. A general note: SPR reads the build-up and loss of mass on a sensor chip optically.
Assay [2] has as its target GDP-bound HRAS wild-type protein (Homo sapiens, UniProt P01112). Nature of the assay: Binding to HRAS by surface plasmon resonance (SPR), Single Cycle Kinetics.
[3] abbreviates: SPR, GDP-bound NRAS wild-type vs GDP-bound KRAS wild-type.
Where [4] appears, read: SPR, GDP-bound HRAS wild-type vs GDP-bound KRAS wild-type.
[5] abbreviates: KD ratio NRAS/KRAS, class symbols.
Setting [6] is: KD ratio HRAS/KRAS, class symbols.

Where a SMILES comes first, the peptide text is derived from it. Bridges are numbered along the chain shown (N, C = ends). [ ]: non-standard residue; d: D form. The star is where a group is joined. hPhe(3-Cl-4-CF3) = N[C@@H](CCc1ccc(C(F)(F)F)c(Cl)c1)C(=O)O; NEtPhe(4-CF3) = CCN[C@@H](Cc1ccc(C(F)(F)F)cc1)C(=O)O; NMeGly(cPent) = CN[C@H](C(=O)O)C1CCCC1; NMeD = CN[C@@H](CC(=O)O)C(=O)O; NMeL = CN[C@@H](CC(C)C)C(=O)O; Ac6c = NC1(C(=O)O)CCCCC1; Morpholide = C1CN(*)CCO1; Sar = CNCC(=O)O

Chain of GDP-bound NRAS wild-type protein (P01111 whole entry): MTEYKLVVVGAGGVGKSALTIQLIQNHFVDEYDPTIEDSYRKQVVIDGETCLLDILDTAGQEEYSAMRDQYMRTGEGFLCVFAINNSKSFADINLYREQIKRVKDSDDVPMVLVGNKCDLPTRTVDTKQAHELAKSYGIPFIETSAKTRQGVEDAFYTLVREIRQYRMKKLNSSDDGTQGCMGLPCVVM
Chain of GDP-bound HRAS wild-type protein (P01112 whole entry): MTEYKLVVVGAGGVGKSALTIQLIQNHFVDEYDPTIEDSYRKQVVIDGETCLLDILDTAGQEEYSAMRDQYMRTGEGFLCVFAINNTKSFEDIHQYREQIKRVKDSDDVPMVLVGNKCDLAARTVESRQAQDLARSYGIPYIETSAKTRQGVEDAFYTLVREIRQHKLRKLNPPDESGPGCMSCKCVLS

Turning to `CC[C@H](C)[C@@H]1NC(=O)[C@H](CC(C)C)N(C)C(=O)C[C@@H](C(=O)N2CCOCC2)N(C)C(=O)[C@H](C2CCCC2)N(C)C(=O)C2(CCCC2)NC(=O)[C@@H]2CC(F)(F)CN2C(=O)[C@H](CCc2cc(F)c(C(F)(F)F)c(F)c2)NC(=O)CN(C)C(=O)[C@H](Cc2ccc(C(F)(F)F)cc2)N2CCCCC[C@@H](C2=O)N(C)C(=O)CN(C)C1=O` [PP0491], the “NRAS/KRAS (ratio of KD value with respect to GDP-bound NRAS wild-type protein to KD value with respect to KRAS)” value in assay [1] (KD ratio NRAS/KRAS, SPR) was “B (a compound having 3 or more and less than 10 is denoted as B)”. Moreover, in assay [2] (KD ratio HRAS/KRAS, SPR), the “HRAS/KRAS (ratio of KD value with respect to GDP-bound HRAS wild-type protein to KD value with respect to KRAS)” value was “B (a compound having 3 or more and less than 10 is denoted as B)”.
For the compound `CCO[C@@H]1C[C@H]2C(=O)NC3(CC(C)(C)C3)C(=O)N(C)[C@@H](C(CC)CC)C(=O)N(C)[C@H](C(=O)N(C)C)CC(=O)N(C)[C@@H](CC3CCC3)C(=O)N[C@@H]([C@@H](C)CC)C(=O)N(C)CC(=O)N(C)[C@H]3C/C=C\CCN(C3=O)[C@@H](Cc3ccc(C)cc3)C(=O)N(C)CC(=O)N[C@@H](CCc3cc(F)c(C(F)(F)F)c(F)c3)C(=O)N2C1` [PP2151], the “NRAS/KRAS (ratio of KD value with respect to NRAS to KD value with respect to KRAS)” value in assay [1] (setting [3]) is “A (a compound having 10 or more and less than 20 is denoted as A)”. Besides, the “HRAS/KRAS (ratio of KD value with respect to HRAS to KD value with respect to KRAS)” value in assay [2] (setting [4]) is “A (a compound having 10 or more and less than 20 is denoted as A)”.
As to `CCOC[C@H]1C(=O)N[C@@H]([C@@H](C)CC)C(=O)N(C)CC(=O)N(C)[C@H]2C/C=C\CCN(C2=O)[C@@H](Cc2ccc(C)cc2)C(=O)N(C)CC(=O)N[C@@H](CCc2cc(F)c(C(F)(F)F)c(F)c2)C(=O)N2C[C@H](OCC)C[C@H]2C(=O)NC2(CC(C)(C)C2)C(=O)N(C)[C@@H](C2CCCC2)C(=O)N(C)[C@H](C(=O)N(C)C)CC(=O)N1C` [PP2397], the “NRAS/KRAS (ratio of KD value with respect to NRAS to KD value with respect to KRAS)” value in assay [1] (setting [3]) is “A (a compound having 10 or more and less than 20 is denoted as A)”. Besides, the “HRAS/KRAS (ratio of KD value with respect to HRAS to KD value with respect to KRAS)” value in assay [2] (setting [4]) was “A (a compound having 10 or more and less than 20 is denoted as A)”.
For `CCC[C@H]1C(=O)N[C@@H]([C@@H](C)CC)C(=O)N(C)CC(=O)N(C)[C@H]2C/C=C\CCN(C2=O)[C@@H](Cc2ccc(C)cc2)C(=O)N(C)CC(=O)N[C@@H](CCc2ccc(C(F)(F)F)c(OC)c2)C(=O)N2CC3(CC3)C[C@H]2C(=O)NC2(CC(C)(C)C2)C(=O)N(C)[C@@H](CC(C)(C)C)C(=O)N(C)[C@H](C(=O)N(C)C)CC(=O)N1C` [PP3009], the “NRAS/KRAS (ratio of KD value with respect to GDP-bound NRAS wild-type protein to KD value with respect to KRAS)” value in assay [1] (KD ratio NRAS/KRAS, SPR, GDP-bound wild-type proteins) is “A (a compound having 10 or more and less than 20 is denoted as A)”. Also, the “HRAS/KRAS (ratio of KD value with respect to GDP-bound HRAS wild-type protein to KD value with respect to KRAS)” value in assay [2] (KD ratio HRAS/KRAS, SPR, GDP-bound wild-type proteins) is “A (a compound having 10 or more and less than 20 is denoted as A)”.
For the compound `CC[C@H](C)[C@@H]1NC(=O)[C@H](CC(C)C)N(C)C(=O)C[C@@H](C(=O)N2CCOCC2)N(C)C(=O)[C@H](C2CCCC2)N(C)C(=O)C2(CCCCC2)NC(=O)[C@@H]2CCCN2C(=O)[C@H](CCc2ccc(C(F)(F)F)c(Cl)c2)NC(=O)CN(C)C(=O)[C@H](Cc2ccc(C(F)(F)F)cc2)N(CC)C(=O)CN(C)C(=O)CN(C)C1=O` [PP0236] ([NMeL]I[Sar][Sar][NEtPhe(4-CF3)][Sar][hPhe(3-Cl-4-CF3)]P[Ac6c][NMeGly(cPent)][NMeD]-Morpholide; lactam N-11), in assay [1] (KD ratio NRAS/KRAS, SPR), the “NRAS/KRAS (ratio of KD for GDP-bound NRAS wild-type to KD for KRAS)” value was “B (a compound having 3 or more and less than 10 is denoted as B)”. Also, the “HRAS/KRAS (ratio of KD for GDP-bound HRAS wild-type to KD for KRAS)” value in assay [2] (KD ratio HRAS/KRAS, SPR) is “C (A compound having a KD ratio of 0.1 or more and less than 3 is denoted as C)”.
In the case of `CCC[C@H]1C(=O)N[C@@H]([C@@H](C)CC)C(=O)N(C2CC2)CC(=O)N(C)[C@H]2C/C=C\CCN(C2=O)[C@@H](Cc2ccc(C(F)(F)F)cc2)C(=O)N(C)CC(=O)N[C@@H](CCc2ccc(C(F)(F)F)c(OC)c2)C(=O)N2C[C@H](OCC)C[C@H]2C(=O)NC2(CC(C)(C)C2)C(=O)N(C)[C@@H](CC(C)(C)C)C(=O)N(C)[C@H](C(=O)N(C)C)CC(=O)N1C` [PP2746], the “NRAS/KRAS (ratio of KD value with respect to GDP-bound NRAS wild-type protein to KD value with respect to KRAS)” value in assay [1] (setting [5]) is “A (a compound having 10 or more and less than 20 is denoted as A)”. Also, in assay [2] (setting [6]), the “HRAS/KRAS (ratio of KD value with respect to GDP-bound HRAS wild-type protein to KD value with respect to KRAS)” value is “A (a compound having 10 or more and less than 20 is denoted as A)”.
As to `CCC[C@H]1C(=O)N[C@@H]([C@@H](C)CC)C(=O)N(C2CC2)CC(=O)N(C)[C@H]2C/C=C\CCN(C2=O)[C@@H](Cc2ccc(C)cc2)C(=O)N(C)CC(=O)N[C@@H](CCc2cc(F)c(C(F)(F)F)c(F)c2)C(=O)N2C[C@H](OC3CCC3)C[C@H]2C(=O)NC2(CC(C)(C)C2)C(=O)N(C)[C@@H](C2CCCC2)C(=O)N(C)[C@H](C(=O)N(C)C)CC(=O)N1C` [PP2614], in assay [1] (setting [5]), the “NRAS/KRAS (ratio of KD value with respect to GDP-bound NRAS wild-type protein to KD value with respect to KRAS)” value was “A (a compound having 10 or more and less than 20 is denoted as A)”. Moreover, in assay [2] (setting [6]), the “HRAS/KRAS (ratio of KD value with respect to GDP-bound HRAS wild-type protein to KD value with respect to KRAS)” value was “A (a compound having 10 or more and less than 20 is denoted as A)”.
For the compound `CCO[C@@H]1C[C@H]2C(=O)NC3(CC(C)(C)C3)C(=O)N(C)[C@@H](C(CC)CC)C(=O)N(C)[C@H](C(=O)N3CCCC3)CC(=O)N(C)[C@@H](C)C(=O)N[C@@H]([C@@H](C)CC)C(=O)N(C)CC(=O)N(C)[C@H]3C/C=C\CCN(C3=O)[C@@H](Cc3ccc(C)cc3)C(=O)N(C)CC(=O)N[C@@H](CCc3ccc(C(F)(F)F)c(Cl)c3)C(=O)N2C1` [PP2152], in assay [1] (setting [3]), the “NRAS/KRAS (ratio of KD value with respect to NRAS to KD value with respect to KRAS)” value is recorded as “AA (a compound having 20 or more is denoted as AA)”. Also, the “HRAS/KRAS (ratio of KD value with respect to HRAS to KD value with respect to KRAS)” value in assay [2] (setting [4]) was “A (a compound having 10 or more and less than 20 is denoted as A)”.
Regarding `CC[C@H](C)[C@@H]1NC(=O)[C@H](CC(C)C)N(C)C(=O)C[C@@H](C(=O)N(C)C)N(C)C(=O)[C@H](C2CCCC2)N(C)C(=O)C2(CCC2)NC(=O)[C@@H]2C[C@@H](C)CN2C(=O)[C@H](CCc2cc(F)c(C(F)(F)F)c(F)c2)NC(=O)CN(C)C(=O)[C@H](Cc2ccc(C)cc2)N2CC/C=C\C[C@@H](C2=O)N(C)C(=O)CN(C)C1=O` [PP1866], the “NRAS/KRAS (ratio of KD value for NRAS to KD value for KRAS)” value in assay [1] (KD ratio, GDP-bound NRAS wild-type vs GDP-bound KRAS wild-type, SPR) is “A (a compound having 10 or more and less than 20 is denoted as A)”. In assay [2] (KD ratio, GDP-bound HRAS wild-type vs GDP-bound KRAS wild-type, SPR), the “HRAS/KRAS (ratio of KD value for HRAS to KD value for KRAS)” value is “B (a compound having 3 or more and less than 10 is denoted as B)”.
With `CCO[C@@H]1C[C@H]2C(=O)NC3(CCC3)C(=O)N(C)[C@@H](C3CCCC3)C(=O)N(C)[C@H](C(=O)N(C)C)CC(=O)N(C)[C@@H](CC3CCCC3)C(=O)N[C@@H]([C@@H](C)CC)C(=O)N(C)CC(=O)N(C)[C@H]3C/C=C\CCN(C3=O)[C@@H](Cc3ccc(C)cc3)C(=O)N(C)CC(=O)N[C@@H](CCc3ccc(C(F)(F)F)c(C4CC4)c3)C(=O)N2C1` [PP2681], in assay [1] (setting [5]), the “NRAS/KRAS (ratio of KD value with respect to GDP-bound NRAS wild-type protein to KD value with respect to KRAS)” value was “A (a compound having 10 or more and less than 20 is denoted as A)”. The “HRAS/KRAS (ratio of KD value with respect to GDP-bound HRAS wild-type protein to KD value with respect to KRAS)” value in assay [2] (setting [6]) is “A (a compound having 10 or more and less than 20 is denoted as A)”.
`CCC[C@H]1C(=O)N[C@H]([C@@H](C)CC)C(=O)N(C)CC(=O)N(C)[C@H]2C/C=C\CCN(C2=O)[C@@H](Cc2ccc(C)cc2)C(=O)N(C)CC(=O)N[C@@H](CCc2cc(F)c(C(F)F)c(F)c2)C(=O)N2C[C@H](OCC)C[C@H]2C(=O)NC2(CC(C)(C)C2)C(=O)N(C)[C@@H](C(CC)CC)C(=O)N(C)[C@H](C(=O)N(C)C)CC(=O)N1C` (stereo in doubt) [PP2783]: in assay [1] (setting [5]), the “NRAS/KRAS (ratio of KD value with respect to GDP-bound NRAS wild-type protein to KD value with respect to KRAS)” value is “A (a compound having 10 or more and less than 20 is denoted as A)”. Also, the “HRAS/KRAS (ratio of KD value with respect to GDP-bound HRAS wild-type protein to KD value with respect to KRAS)” value in assay [2] (setting [6]) was “A (a compound having 10 or more and less than 20 is denoted as A)”.
